Where two headings read alike, the source gives them in different places.
Assays:
albumin [1] = assay: Relaxivity in the presence and absence of albumin at 1.5 T; type: physicochemical
Description: To characterize the efficacy of an activatable contrast agent, the relaxivity enhancement ratio, that is the ratio of the activated relaxivity to the inactivated relaxivity can be defined. For Vasovist at a magnetic field strength equal to 1.5 T, the relaxivities in the presence and absence of albumin are 19 s^−1 mM^−1 and 5.2 s^−1 mM^−1 respectively, resulting in a relaxivity enhancement ratio of 3.7. From FIG. 3 it can be seen that the Vasovist relaxivity enhancement ratio peaks in the vicinity of a magnetic filed strength equal to 0.5 T, and falls quickly for magnetic field strengths above that value.
Defining R1′ and r1′ as the partial derivatives of R1 and r1 with respect to the polarizing magnetic field B0 results in R1′=R1Unenhanced′+r1′*[CA]. Applying the approximation that R1′Unenhanced≈0 for magnetic fields above 1.0 T, results in the expression R1′≈r1′*[CA]. […] For Vasovist, the relaxivity slope enhancement ratio (ratio of activated r1′ to inactivated r1′) is 90 at a magnetic field strength equal to 1.5 T. This represents a 25-fold increase over the absolute relaxivity enhancement ratio of 3.7 mentioned above. The high specificity of DREMR enhancement is not specific to Vasovist but applies to any T1 contrast agent that undergoes binding to large molecules (15).

albumin [2] = conditions: 1.5 T, cited from earlier work
rabbit serum albumin = target: T1, rabbit serum albumin (Oryctolagus cuniculus, UniProt P49065); assay: MRI phantom imaging (T1 weighted and DREMR) with and without rabbit serum albumin; conditions: 1.5 T, 21° C.
T1 construct: purchased Sigma-Aldrich batch 104K7560 (catalogue number not given)
Description: The particular choice of agent/protein pair was based by the availability of the contrast agent and its well-documented relaxivity mechanisms, rather than any specific clinical or research interest in albumin.
An MRI phantom (see FIG. 5a) was constructed that held two columns of six rows of glass tubes; each tube 3 cm in length with a 0.4 mL capacity. The sample tubes in the left column were filled with 0.01 M phosphate buffered saline (PBS) (NaCl 0.138M, KCl 0.0027M, pH 7.4 at 25° C.). The right column of sample tubes held a solute of rabbit serum albumin (Sigma-Aldrich, batch 104K7560, agarose gel electrophoresis) in PBS. The albumin, purchased as a lyophilized powder, was dissolved in PBS, at a 4.5% weight to volume ratio resulting in ˜0.67 mM concentration. Vasovist (0.25 mmol/mL) was added in equal concentration to both columns to achieve sample concentrations of 0, 10, 20, 40, 80 and 160 μM as a function of descending rows.
Imaging was performed on a Sigma LX 1.5 T clinical MRI machine (General Electric Healthcare), equipped with an actively shielded electromagnetic ΔB insert (19). […]

human serum albumin = human serum albumin (Homo sapiens, UniProt P02768); conditions: cited from earlier work; for increase of relaxivity of the bound form: in the presence of human serum albumin
myeloperoxidase = target: T2, myeloperoxidase (Homo sapiens, UniProt P05164); conditions: in the presence of active myeloperoxidase; cited from earlier work
T2 sequence (P05164 49-745): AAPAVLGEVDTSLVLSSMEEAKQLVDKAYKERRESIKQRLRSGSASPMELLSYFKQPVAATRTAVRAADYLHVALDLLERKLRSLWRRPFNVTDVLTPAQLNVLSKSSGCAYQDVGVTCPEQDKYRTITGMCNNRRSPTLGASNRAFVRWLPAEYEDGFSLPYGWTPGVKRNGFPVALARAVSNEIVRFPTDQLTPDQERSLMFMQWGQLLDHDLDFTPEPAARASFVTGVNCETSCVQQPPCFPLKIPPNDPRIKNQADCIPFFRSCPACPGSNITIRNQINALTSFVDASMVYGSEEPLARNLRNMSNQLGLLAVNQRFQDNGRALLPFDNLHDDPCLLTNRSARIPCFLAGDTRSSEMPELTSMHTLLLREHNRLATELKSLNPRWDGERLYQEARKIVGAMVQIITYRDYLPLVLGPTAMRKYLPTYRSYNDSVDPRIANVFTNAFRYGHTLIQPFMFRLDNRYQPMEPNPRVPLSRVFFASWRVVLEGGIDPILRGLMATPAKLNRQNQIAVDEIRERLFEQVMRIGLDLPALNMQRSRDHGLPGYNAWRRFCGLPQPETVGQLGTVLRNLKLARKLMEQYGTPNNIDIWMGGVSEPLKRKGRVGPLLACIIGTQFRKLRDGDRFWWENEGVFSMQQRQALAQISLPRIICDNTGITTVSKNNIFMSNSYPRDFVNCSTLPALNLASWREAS

Sequence of human serum albumin (P02768 25-609): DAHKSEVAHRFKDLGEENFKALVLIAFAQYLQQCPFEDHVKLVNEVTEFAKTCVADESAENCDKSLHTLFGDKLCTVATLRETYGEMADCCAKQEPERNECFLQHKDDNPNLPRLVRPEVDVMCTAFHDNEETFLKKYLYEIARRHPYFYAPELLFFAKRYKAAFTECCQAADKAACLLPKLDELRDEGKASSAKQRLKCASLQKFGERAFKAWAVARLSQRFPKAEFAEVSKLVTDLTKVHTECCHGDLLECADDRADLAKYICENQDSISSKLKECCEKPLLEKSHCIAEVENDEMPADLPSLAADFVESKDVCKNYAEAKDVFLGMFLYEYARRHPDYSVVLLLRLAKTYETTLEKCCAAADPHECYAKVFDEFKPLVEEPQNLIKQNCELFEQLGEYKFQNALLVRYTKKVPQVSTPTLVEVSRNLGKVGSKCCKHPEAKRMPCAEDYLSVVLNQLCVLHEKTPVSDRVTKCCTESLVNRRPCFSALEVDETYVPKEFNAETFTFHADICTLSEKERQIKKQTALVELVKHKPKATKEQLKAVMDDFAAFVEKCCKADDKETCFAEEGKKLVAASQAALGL
T1 sequence (P49065 25-608): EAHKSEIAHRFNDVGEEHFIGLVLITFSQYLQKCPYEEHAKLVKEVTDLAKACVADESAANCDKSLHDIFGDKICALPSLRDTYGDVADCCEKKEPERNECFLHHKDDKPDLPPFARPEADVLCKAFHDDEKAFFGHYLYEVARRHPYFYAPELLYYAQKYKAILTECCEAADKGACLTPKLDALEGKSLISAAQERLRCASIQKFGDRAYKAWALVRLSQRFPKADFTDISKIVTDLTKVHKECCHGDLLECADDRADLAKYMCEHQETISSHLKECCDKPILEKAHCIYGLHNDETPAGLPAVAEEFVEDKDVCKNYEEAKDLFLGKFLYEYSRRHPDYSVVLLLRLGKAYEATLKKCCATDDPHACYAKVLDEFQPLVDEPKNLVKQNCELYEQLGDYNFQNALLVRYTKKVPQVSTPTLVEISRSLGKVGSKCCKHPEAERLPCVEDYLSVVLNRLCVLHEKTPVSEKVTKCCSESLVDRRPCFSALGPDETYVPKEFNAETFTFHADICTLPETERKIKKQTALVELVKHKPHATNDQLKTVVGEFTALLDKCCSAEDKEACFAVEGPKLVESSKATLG

| SMILES | increase of relaxivity slope enhancement ratio over absolute relaxivity enhancement ratio (albumin [1]; 1.5 T) [fold] | relaxivity enhancement ratio (activated relaxivity to inactivated relaxivity) (albumin [1]; 1.5 T) | relaxivity slope enhancement ratio (activated r1′ to inactivated r1′) (albumin [1]; 1.5 T) | magnetic field strength at which the relaxivity enhancement ratio peaks (albumin [1]; from FIG. 3) [T] | relaxivity (albumin [2]; absence of albumin) [s⁻¹ mM⁻¹] | relaxivity (albumin [2]; presence of albumin) [s⁻¹ mM⁻¹] | DREMR image intensity, albumin samples (rabbit serum albumin; 4.5% rabbit serum albumin in PBS, ±70 mT ΔB) | standard T1 weighted spin-echo image intensity (rabbit serum albumin; albumin solution and PBS samples, 0-160 μM) | binding to human serum albumin (human serum albumin) | increase of relaxivity of the bound form (human serum albumin; 30 Mhz) | increase of relaxivity of the bound form (human serum albumin; 60 MHz) | relaxivity change on conversion to oligomeric form (myeloperoxidase) |
| --- | --- | --- | --- | --- | --- | --- | --- | --- | --- | --- | --- | --- |
| O=C([O-])CN(CCN(CC(=O)[O-])CC(COP(=O)([O-])OC1CCC(c2ccccc2)(c2ccccc2)CC1)N(CC(=O)[O-])CC(=O)[O-])CC(=O)[O-].[Gd+3].[Na+].[Na+].[Na+] (stereo not drawn) [Vasovist, Gadofosveset trisodium] | 25 | 3.7 | 90 | ~0.5 | 5.2 | 19 | continued to demonstrate dependence on Vasovist concentration | demonstrated significant dependence on Vasovist concentration | strong non-covalent binding | approximately an order of magnitude | approximately four-fold |  |
| O=C([O-])CN(CCN(CC(=O)[O-])CC(=O)NCCc1c[nH]c2ccc(O)cc12)CCN(CC(=O)[O-])CC(=O)NCCc1c[nH]c2ccc(O)cc12.[Gd+3] [bis-5-HT-DTPA(Gd)] |  |  |  |  |  |  |  |  |  |  |  | enhanced relaxivity |

Source: patent publication US10663548B2, “System and method for magnetic resonance imaging” (The University of Western Ontario, priority 2008, dated 2020)
